# In patent US12029791B2, “Therapeutic conjugates” (Totus Medicines Inc., priority 2019, dated 2024):
# Tested on: PI3-kinase
# Assay: NanoBRET screening of ARCS for covalent binding in transfected HEK293 cells
# Design: species or system Human
# Conditions: HEK293 cells transfected with NanoLuc-target fusion, overnight incubation, washout
# Experimental: Human embryonic kidney 293-H (HEK 293, Gibco 293-H, #11631017) cell lines are maintained in Dulbecco's Modified Eagle Medium, high glucose, pyruvate (DMEM, Gibco, #11995065) supplemented with 10% fetal bovine serum (FBS, Gibco, #10082147) and 1× penicillin-streptomycin (100× solution, Gibco, #15140148) at 37° C. and 5% CO2 in a water-saturated incubator. Cell are trypsinized using 0.05% or 0.25% Trypsin-EDTA solution (Trypsin-EDTA, phenol red, Gibco, #25200056 (0.25%) or #25300054). Opti-MEM media supplemented with 10% fetal bovine serum (Opti-MEM I reduced serum media, no phenol red, Gibco, #11058021) is used for culturing cells overnight for NanoBRET readout experiments.
# HEK293 cells are cultivated appropriately prior to assay. The medium from cell flask is removed via aspiration, washed 1× with PBS followed by aspiration, trypsinized, and cells are allowed to dissociate from the flask. Trypsin is neutralized using growth medium and cells are pelleted via centrifugation at 200×g for 5 minutes. The medium is aspirated and the cells are resuspended into a single cell suspension using Opti-MEM I supplemented with 10% FBS. The cell density is adjusted to 2×10^5/mL in Opti-MEM I supplemented with 10% FBS in a sterile, conical tube. The cells are transfected and aliquoted directly in a 96-well plate for the NanoBRET assay the next day, and therefore, the cells are cultured overnight in Opti-MEM. The cells are also transfected in bulk and dispensed into a 96-well plate to allow cells to adhere to the plate overnight, thereby enabling washout studies.
# The lipid:DNA complexes are prepared as follows:
# A 10 μg/mL solution of DNA is prepared in Opti-MEM without serum. This solution contains the following ratios of carrier DNA and DNA encoding NanoLuc fused to the biological target. Serial dilution steps may be warranted to accurately dilute the NanoLuc fusion DNA. Added, in order, the following reagents to a sterile polystyrene test tube: 1 mL of Opti-MEM without phenol red; 9.0 μg/mL of carrier DNA; 1.0 μg/mL of NanoLuc fusion DNA (for some targets, the amount is less). The reagents are mixed thoroughly.
# 30 μL of FuGENE HD is added into each mL of DNA mixture to form lipid:DNA complex. […] It is mixed by pipetting up and down 5-10 times and incubated at room temperature for 20 minutes to allow complexes to form. 1 part (e.g. 1 mL) of lipid:DNA complex is mixed with 20 parts (e.g. 20 mL) of HEK293 cells in suspension at 2×10^5/mL and mixed gently by pipetting up and down 5 times in a sterile, conical tube. Larger or smaller bulk transfections are scaled accordingly, using this ratio. 100 μL cells+lipid:DNA complex is dispensed into a sterile, tissue-culture treated 96-well plate (20,000 cells/well), and incubated at least 16 hours to allow expression. The cells are incubated in a 37° C.+5% CO2 incubator for >16 hrs. A serially diluted inhibitor or test compound is prepared at 100× final concentration in 100% DMSO. The serially diluted inhibitor stock is prepared in PCR plates. 1 μL per well of 100× serially diluted inhibitor/test compound is added to the cells in 96-well plates that have been transiently transfected overnight and mixed by tapping the plate by hand. The plate is incubated at 37° C.+5% CO2 incubator overnight. A 1× solution of substrate mix (500× stock) and appropriate concentration of tracer is prepared in Opti-Mem. The cells are washed by setting a plate washer to the 96 well plate 5× in PBS pH 7.4 by adding 200 μL PBS each time. The cells are incubated at 37° C. for 2 hours. 100 μL of the 1× Substrate-Tracer solution is added and the 96 well plate is gently tapped to mix. The plate on plate reader is read every hour for the next 6 hours. The binding assays of some ARCS are shown below. Compound 1-XXXII formed a covalent bond with PI3-kinase from about 5% to 20%. ARCS selected from the group consisting of Compounds 1-101, 1-102, 1-113, 1-114, 1-119, 1-120, 1-125 and 1-126 formed a covalent bond with PI3-kinase from about 80% to 100%. […]
row,SMILES,Binding (Percent inhibition)
1,CC#CC(=O)CCC(=O)N1CCN(Cc2cc3c(N4CCOCC4)nc(-c4cnc(NC(=O)OC)cc4C(F)(F)F)nn3c2)CC1 [Compound 1-125],+++ (>80%)
2,COC(=O)Nc1cc(C(F)(F)F)c(-c2nc(N3CCOCC3)c3cc(CN4CCN(C(=O)CCC(=O)/C=C/CN(C)C)CC4)cn3n2)cn1 [Compound 1-119],+++ (>80%)
3,C=CC(=O)Nc1ccc(C(=O)N2CCN(Cc3cc4c(N5CCOCC5)nc(-c5cnc(NC(=O)OC)cc5C(F)(F)F)nn4c3)CC2)cc1 [Compound 1-171],++ (50-80%)
4,COC(=O)Nc1cc(C(F)(F)F)c(-c2nc(N3CCOCC3)c3cc(CN4CCN(C(=O)CCC(=O)C=C(C)C)CC4)cn3n2)cn1 [Compound 1-113],+++ (>80%)
5,CC#CC(=O)NCC(=O)N1CCN(Cc2cc3c(N4CCOCC4)nc(-c4cnc(NC(=O)OC)cc4C(F)(F)F)nn3c2)CC1 [Compound 1-126],+++ (>80%)
6,C=CC(=O)CCC(=O)N1CCN(Cc2cc3c(N4CCOCC4)nc(-c4cnc(NC(=O)OC)cc4C(F)(F)F)nn3c2)CC1 [Compound 1-101],+++ (>80%)
7,COC(=O)Nc1cc(C(F)(F)F)c(-c2nc(N3CCOCC3)c3cc(CN4CCNCC4)cn3n2)cn1 [Compound 1-XXXII],+ (<20%)
8,C=CC(=O)Nc1ccc(CCNCc2cc3c(N4CCOCC4)nc(-c4cnc(NC(=O)OC)cc4C(F)(F)F)nn3c2)cc1 [Compound 1-172],++ (50-80%)
9,COC(=O)Nc1cc(C(F)(F)F)c(-c2nc(N3CCOCC3)c3cc(CN4CCN(C(=O)CNC(=O)C=C(C)C)CC4)cn3n2)cn1 [Compound 1-114],+++ (>80%)
10,C=CC(=O)NCC(=O)N1CCN(Cc2cc3c(N4CCOCC4)nc(-c4cnc(NC(=O)OC)cc4C(F)(F)F)nn3c2)CC1 [Compound 1-102],+++ (>80%)
11,COC(=O)Nc1cc(C(F)(F)F)c(-c2nc(N3CCOCC3)c3cc(CN4CCN(C(=O)CNC(=O)/C=C/CN(C)C)CC4)cn3n2)cn1 [Compound 1-120],+++ (>80%)
